The subject of test [1] is uninfected human PBM cells. Nature of the test: Toxicity: growth of mitogen-stimulated uninfected human PBM cells. Type of test: cell-based. How it is done:
Mitogen stimulated uninfected human PBM cells (3.8×10^5 cells/ml) were cultured in the presence and absence of drug under similar conditions as those used for the antiviral assay described above. The cells were counted after 6 days using a hemacytometer and the trypan blue exclusion method, as described by Schinazi, et al., (Antimicrobial Agents and Chemotherapy, 22(3), 499 (1982)).

The next test deals with HIV-1 (strain LAV). Type of test: cell-based. How it is done: The ability of nucleosides to inhibit HIV can be measured by various experimental techniques. The technique used herein, and described in detail below, measures the inhibition of viral replication in phytohemaggluinin (PHA) stimulated human peripheral blood mononuclear (PBM) cells infected with HIV-1 (strain LAV). The amount of virus produced is determined by measuring the virus-coded reverse transcriptase enzyme. The amount of enzyme produced is proportional to the amount of virus produced.
Three-day old phytohemagglutinin-stimulated PBM cells (10^6 cells/ml) from hepatitis B and HIV-1 seronegative healthy donors were infected with HIV-1 (strain LAV) at a concentration of about 100 times the 50% tissue culture infections dose (TICD 50) per ml and cultured in the presence and absence of various concentrations of antiviral compounds.
Approximately one hour after infection, the medium, with the compound to be tested (2 times the final concentration in medium) or without compound, was added to the flasks (5 ml; final volume 10 ml). AZT was used as a positive control.
The cells were exposed to the virus (about 2×10^5 dpm/ml, as determined by reverse transcriptase assay) and then placed in a CO2 incubator. HIV-1 (strain LAV) was obtained from the Center for Disease Control, Atlanta, Ga. The methods used for culturing the PBM cells, harvesting the virus and determining the reverse transcriptase activity were those described by McDougal, et al. (J. Immun. Meth. 76, 171-183, 1985) and Spira, et al. (J. Clin. Meth. 25, 97-99, 1987), except that fungizone was not included in the medium (see Schinazi, et al., Antimicrob. Agents Chemother. 32, 1784-1787 (1988); Id., 34:1061-1067 (1990)).
On day 6, the cells and supernatant were tnansferred to a 15 ml tube and centrifuged at about 900 g for 10 minutes. Five ml of supernatant was removed and the virus was concentrated by centrifugation at 40,000 rpm for 30 minutes (Beckman 70.1 Ti rotor). The solubilized virus pellet was processed for determination of the levels of reverse transcriptase. Results are expressed in dpm/ml of sampled supernatant. Virus from smaller volumes of supernatant (1 ml) can also be concentrated by centriguation prior to solubilization and determination of reverse transcriptase levels.
The median effective (EC50) concentration was determined by the median effect-method (Antimicrob. Agents Chemother. 30, 491-498 (1986)). Briefly, the percent inhibition of virus, as determined from measurements of reverse transcriptase, is plotted versus the micromolar concentration of compound.

In the next test the test system is CEM cells. Nature of the test: Toxicity in CEM cells. Type of test: cell-based, human. The text has this: Some of the 1,3-oxaselenolanyl nucleosides described herein can be used to treat abnormal cellular proliferation, including tumors and cancer. The extent of antiproliferative activity can be easily assessed by assaying the compound according to the procedure below in a CEM cell or other tumor or proliferative cell line assay. CEM cells are human lymphoma cells (a T-lymphoblastoid cell line that can be obtained from ATCC, Rockville, Md.). The toxicity of a compound to CEM cells provides useful information regarding the activity of the compound against tumors. The toxicity is measured as IC50 micromolar).
Drug solutions, including cycloheximide as a positive control, are plated in triplicate in 50 μl growth medium at 2 times the final concentration and allowed to equilibrate at 37° C. in a 5% CO2 incubator. […] Absorbance is read at 570 nm, blanking on the medium-only wells using a Biotek Biokinetics plate read (Biotek, Winooski, Vt.). Average percent inhibition of growth compared to the untreated control is calculated. IC50, IC90, slope and r value are calculated by the method of Chou and Talaly. Chou T-C, Talalay P. Quantitative analysis of dose-effect relationships: The combined effects of multiple drugs or enzyme inhibitors. […]

In a further test the test system is Vero cells. Nature of the test: Toxicity in Vero cells. Type of test: cell-based.
Test [2] concerns Cloned M184 HIV-1 (M184V). Nature of the test: Anti-HIV activity in PBM cells infected with cloned M184V HIV-1 (mutation at codon 184 of reverse transcriptase gene). The settings on record: for FI EC50 (fold increase): EC50 data from cloned virus/EC50 data from xxBRU; for FI EC90 (fold increase): EC90 M184V versus xxBRU; for EC50 / EC90: Virus M184V; for EC50 / EC90 / activity against the mutated virus: PBM cells; for activity against the mutated virus: HIV with mutation at codon 184 in reverse transcriptase gene. The test is classed as cell-based.

Another test concerns xxBRU HIV-1. Nature of the test: Anti-HIV activity in PBM cells, virus xxBRU. The test is classed as cell-based.
The subject of another test is HIV. The settings on record: comparison with AZT; cited from earlier work.
Where [3] appears, read: mitogen-stimulated uninfected human PBM cells, read-out: Toxicity (IC50 μM) PMB.
The mark [4] stands for this setting: PBM cells, HIV-1 strain LAV, estimated 10% error factor, read-out: Anti-HIV Activity in PBM Cells (EC50 μM).
The mark [5] stands for this setting: Table 5, cytotoxicity in PBM cells, read-out: IC50 PBM.
Setting [6] is: Table 5, anti-HIV activity in PBM cells.
Where [7] appears, read: Table 5, anti-HIV activity in PBM cells, read-out: EC50.

Like-named read-outs stand apart in the source and are kept apart here.

The text below walks through data of patent publication US6590107B1, “Synthesis, anti-human immunodeficiency virus, and anti-hepatitis B virus activities of 1,3-oxaselenolane nucleosides” (Emory University, priority 1997, dated 2003).

On to `Nc1ccn(C2C[Se]C(CO)O2)c(=O)n1` (centres unmarked), for which the IC50 (in test [1] (setting [3]); in the test on CEM cells; in the test with Vero cells) was greater than 100 µM in each case. Besides, in the test with HIV-1 (strain LAV) (setting [4]), the EC50 was 0.88 µM.
For `Nc1nc(=O)n(C2C[Se]C(CO)O2)cc1F` (racemic) [(±)-β-Se-FddC, 2-hydroxymethyl-4-(N-5′-flurocytosin-1′-yl)-1,3-oxaselenolane], the IC50 in test [1] (setting [5]) was greater than 100 µM. Also, in test [2], the “FI EC50 (fold increase)” value worked out at 59, the “FI EC90 (fold increase)” value turned out to be 49, it took 108 µM to reach a half-maximal effect (EC50) and it took 337 µM to reach the 90% level (EC90). In the test with HIV-1 (strain LAV) (setting [6]), this compound registered an EC90 of 16.4 µM. The EC50 with HIV-1 (strain LAV) (setting [7]) was 5.55 µM.
In the case of `Nc1ccn(C2C[Se]C(CO)O2)c(=O)n1` (racemic) [(±)-β-Se-ddC], in test [1] (setting [5]), the IC50 was greater than 100 µM. The “activity against the mutated virus” value in test [2] is given as “significant activity”. Moreover, the EC90 in the test on HIV-1 (strain LAV) (setting [6]) amounted to 209 µM; in the test on xxBRU HIV-1 it was 6.9 µM. Also, the results for the EC50 with HIV-1 (strain LAV) (setting [7]) and in the test on xxBRU HIV-1 were 2.69 µM and 1.84 µM, respectively.
Take `Nc1ccn(C2CSC(CO)O2)c(=O)n1` (racemic) [BCH-189, 2-hydroxymethyl-5-(cytosin-1-yl)-1,3-oxathiolane]: in the test with HIV, the “activity against HIV relative to AZT” value was “approximately the same activity against HIV as AZT”.
Regarding `Nc1nc(=O)n(C2C[Se]C(CO)O2)cc1F` [(+)-β-Se-FddC, 1-β-D-(2′-hydroxymethyl-1′,3′-oxaselenolane-5′-yl)-5-fluorocytosine], the IC50 in test [1] (setting [5]) was greater than 100 µM. In test [2], the “FI EC50 (fold increase)” value is reported as greater than 6, the “FI EC90 (fold increase)” value was greater than 1, the EC50 is greater than 50 µM and the EC90 was greater than 50 µM. Moreover, the 90% effect level in the test with HIV-1 (strain LAV) (setting [6]) (EC90) was put at 164 µM. For the same compound, the EC50 with HIV-1 (strain LAV) (setting [7]) is 41.9 µM.
As for `Nc1ccn([C@@H]2C[Se][C@H](CO)O2)c(=O)n1` [(+)-β-Se-ddC, (+)-(2R,5S)-β-D-2′,3′-dideoxy-3′-seleno-cytidine], in test [1] (setting [5]), the IC50 is greater than 100 µM. Besides, the EC90 is 677 µM in the test on HIV-1 (strain LAV) (setting [6]) and 35.1 µM with xxBRU HIV-1. Also, the EC50 in the test with HIV-1 (strain LAV) (setting [7]) amounted to 3.39 µM; in the test on xxBRU HIV-1 it was 8.62 µM.
As to `Nc1nc(=O)n(C2C[Se]C(CO)O2)cc1F` [(−)-β-Se-FddC, 1-β-L-(2′-Hydroxymethyl-1′,3′-oxaselenolane-5′-yl)-5-fluorocytosine], the IC50 in test [1] (setting [5]) is greater than 100 µM. For the same compound, in test [2], the “FI EC50 (fold increase)” value is greater than 455, the “FI EC90 (fold increase)” value is on record as greater than 53, the EC50 was greater than 50 µM and the EC90 is greater than 50 µM. The EC90 in the test on HIV-1 (strain LAV) (setting [6]) was 1.05 µM. Further, in the test on HIV-1 (strain LAV) (setting [7]), the EC50 came out at 0.21 µM.
In the case of `Nc1ccn([C@H]2C[Se][C@@H](CO)O2)c(=O)n1` [(−)-β-Se-ddC, (−)-(2S,5R)-β-L-2′,3′-dideoxy-3′-seleno-cytidine], the IC50 in test [1] (setting [5]) is greater than 100 µM. For the same compound, in test [2], the “activity against the mutated virus” value is recorded as “significant activity”. Also, the EC90 in the test on HIV-1 (strain LAV) (setting [6]) is 5.42 µM; in the test on xxBRU HIV-1, 0.95 µM. The figures for the EC50 in the test with HIV-1 (strain LAV) (setting [7]) and with xxBRU HIV-1 were 0.88 µM and 0.11 µM, respectively.
As to `Nc1nc(=O)n(C2C[Se]C(CO)O2)cc1F` (centres unmarked) [Compound 5-F-Cytosine], the IC50 (in test [1] (setting [3]); with CEM cells; with Vero cells) was greater than 100 µM throughout. Also, the EC50 in the test on HIV-1 (strain LAV) (setting [4]) was 0.07 µM.
